# Experimental data: ChEMBL document CHEMBL1134089, “Arylsulphonyl hydroxamic acids: potent and selective matrix metalloproteinase inhibitors” (Bioorg Med Chem Lett, 2001)
# Key:
# [1] = target: Matrix metalloproteinase-9 (Homo sapiens, UniProt P14780); assay: Inhibition of Matrix metalloprotease-9
# [2] = target: 72 kDa type IV collagenase (Homo sapiens, UniProt P08253); assay: Inhibition of Matrix metalloprotease-2
# Interstitial collagenase = target: T1, Interstitial collagenase (Homo sapiens, UniProt P03956); assay: Inhibition of Matrix metalloprotease-1
# T1 sequence (P03956 whole entry): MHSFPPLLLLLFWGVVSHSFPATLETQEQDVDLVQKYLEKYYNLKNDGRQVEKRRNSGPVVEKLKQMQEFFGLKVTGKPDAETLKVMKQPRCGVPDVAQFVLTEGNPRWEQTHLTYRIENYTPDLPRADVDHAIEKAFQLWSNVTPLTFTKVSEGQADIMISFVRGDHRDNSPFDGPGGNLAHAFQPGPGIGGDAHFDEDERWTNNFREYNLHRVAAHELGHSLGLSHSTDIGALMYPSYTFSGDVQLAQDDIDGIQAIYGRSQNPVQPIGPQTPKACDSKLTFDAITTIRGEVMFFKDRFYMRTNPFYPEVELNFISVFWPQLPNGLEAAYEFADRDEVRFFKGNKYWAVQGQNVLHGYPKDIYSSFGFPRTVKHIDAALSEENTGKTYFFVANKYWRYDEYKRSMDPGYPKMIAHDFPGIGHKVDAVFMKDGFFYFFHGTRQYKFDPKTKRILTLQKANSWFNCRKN
# Stromelysin-1 = Stromelysin-1 (Homo sapiens, UniProt P08254); assay: Inhibition of Matrix metalloprotease-3
# Neutrophil collagenase = Neutrophil collagenase (Homo sapiens, UniProt P22894); assay: Inhibition of Matrix metalloprotease-8
# Mus musculus = assay: Percent inhibition against B16-F10 mouse melanoma tested in vivo at 30 mg/kg; format: functional
# [3] = Inhibitory concentration required against shedding of IL-1 RII from stimulated PBMCs; format: functional
# [4] = Inhibitory concentration required against shedding of IL6-R from stimulated PBMCs; format: functional
# [5] = (§1) Inhibitory concentration required against shedding of L-Selectin from stimulated PBMCs; format: functional, Homo sapiens
# [6] = Inhibitory concentration required against shedding of TNF RII from stimulated PBMCs; format: functional
# [7] = Inhibitory concentration required against shedding of TNF-alpha from stimulated PBMCs; format: functional
# Rattus norvegicus [8] = assay: Percent inhibition against adjuvant arthritis in rats tested in vivo at 10 mg/kg; format: functional
# Rattus norvegicus [9] = assay: Plasma level evaluated in the rat after oral dosing of 10 mg/kg; format: ADME, organism-based; design: dose 10 mg/kg, route oral; details: in vivo
# Rattus norvegicus [10] = assay: Percent inhibition against adjuvant arthritis in rats tested in vivo at 3 mg/kg; format: functional
# [11] = as §1; format: functional
# Sequence of Stromelysin-1 (P08254 whole entry): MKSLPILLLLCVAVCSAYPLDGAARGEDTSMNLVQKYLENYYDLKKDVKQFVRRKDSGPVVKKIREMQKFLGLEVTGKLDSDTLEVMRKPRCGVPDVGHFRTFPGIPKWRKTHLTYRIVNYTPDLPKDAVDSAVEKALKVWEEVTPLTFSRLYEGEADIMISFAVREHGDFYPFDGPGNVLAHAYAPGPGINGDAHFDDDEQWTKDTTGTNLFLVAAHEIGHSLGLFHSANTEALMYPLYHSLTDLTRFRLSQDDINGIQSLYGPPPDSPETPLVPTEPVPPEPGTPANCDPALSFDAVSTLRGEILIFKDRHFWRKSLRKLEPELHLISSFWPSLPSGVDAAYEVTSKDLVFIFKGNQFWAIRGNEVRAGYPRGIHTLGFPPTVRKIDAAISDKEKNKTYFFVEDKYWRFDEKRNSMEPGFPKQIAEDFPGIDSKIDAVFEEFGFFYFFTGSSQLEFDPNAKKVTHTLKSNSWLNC
# Sequence of Matrix metalloproteinase-9 (P14780 whole entry): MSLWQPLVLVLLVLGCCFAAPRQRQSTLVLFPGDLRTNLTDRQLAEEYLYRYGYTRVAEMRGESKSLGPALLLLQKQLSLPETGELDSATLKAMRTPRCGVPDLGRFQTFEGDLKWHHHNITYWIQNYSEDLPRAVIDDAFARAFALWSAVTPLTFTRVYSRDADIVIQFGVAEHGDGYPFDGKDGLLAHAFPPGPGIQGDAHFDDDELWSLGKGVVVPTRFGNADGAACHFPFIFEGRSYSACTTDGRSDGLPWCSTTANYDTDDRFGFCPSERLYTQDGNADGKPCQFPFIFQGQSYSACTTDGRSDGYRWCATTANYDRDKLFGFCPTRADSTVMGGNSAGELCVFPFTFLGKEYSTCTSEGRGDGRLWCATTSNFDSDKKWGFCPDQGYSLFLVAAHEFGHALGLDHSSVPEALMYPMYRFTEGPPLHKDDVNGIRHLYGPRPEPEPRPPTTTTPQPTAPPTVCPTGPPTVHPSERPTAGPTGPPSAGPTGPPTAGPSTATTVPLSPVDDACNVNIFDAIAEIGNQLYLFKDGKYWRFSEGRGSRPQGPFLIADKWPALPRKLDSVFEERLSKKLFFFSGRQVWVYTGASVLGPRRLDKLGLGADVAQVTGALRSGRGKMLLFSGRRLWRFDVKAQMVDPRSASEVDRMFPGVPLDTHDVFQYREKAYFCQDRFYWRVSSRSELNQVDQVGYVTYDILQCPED
# Sequence of 72 kDa type IV collagenase (P08253 whole entry): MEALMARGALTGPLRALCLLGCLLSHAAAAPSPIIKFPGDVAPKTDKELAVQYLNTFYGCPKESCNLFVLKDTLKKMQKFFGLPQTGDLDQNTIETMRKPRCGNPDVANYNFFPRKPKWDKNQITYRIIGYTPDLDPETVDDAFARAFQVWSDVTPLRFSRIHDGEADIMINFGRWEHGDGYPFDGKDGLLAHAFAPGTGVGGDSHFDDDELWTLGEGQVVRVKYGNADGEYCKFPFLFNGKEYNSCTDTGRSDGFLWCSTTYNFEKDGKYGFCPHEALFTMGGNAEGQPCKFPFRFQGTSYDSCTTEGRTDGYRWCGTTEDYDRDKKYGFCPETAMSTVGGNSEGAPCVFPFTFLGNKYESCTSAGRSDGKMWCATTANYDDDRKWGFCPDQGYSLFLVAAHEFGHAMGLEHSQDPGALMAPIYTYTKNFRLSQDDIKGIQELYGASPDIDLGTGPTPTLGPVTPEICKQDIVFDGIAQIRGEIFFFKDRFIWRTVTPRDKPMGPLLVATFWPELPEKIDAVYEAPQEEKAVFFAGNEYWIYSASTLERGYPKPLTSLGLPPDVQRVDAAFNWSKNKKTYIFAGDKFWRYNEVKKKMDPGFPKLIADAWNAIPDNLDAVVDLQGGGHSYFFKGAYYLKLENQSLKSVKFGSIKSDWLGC
# Sequence of Neutrophil collagenase (P22894 whole entry): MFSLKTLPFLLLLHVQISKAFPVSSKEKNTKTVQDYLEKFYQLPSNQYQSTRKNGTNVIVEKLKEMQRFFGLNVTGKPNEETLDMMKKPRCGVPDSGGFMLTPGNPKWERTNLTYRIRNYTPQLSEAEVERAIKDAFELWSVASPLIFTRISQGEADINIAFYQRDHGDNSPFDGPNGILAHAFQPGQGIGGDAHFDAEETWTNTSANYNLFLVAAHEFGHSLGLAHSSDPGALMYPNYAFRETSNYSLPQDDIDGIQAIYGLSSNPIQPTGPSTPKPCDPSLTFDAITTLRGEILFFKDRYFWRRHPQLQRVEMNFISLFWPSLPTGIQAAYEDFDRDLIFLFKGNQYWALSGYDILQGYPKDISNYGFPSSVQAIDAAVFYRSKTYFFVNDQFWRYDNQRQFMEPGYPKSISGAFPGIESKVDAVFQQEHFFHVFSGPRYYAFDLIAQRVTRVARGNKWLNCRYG
Compound,IC50 [1] [nM],IC50 [2] [nM],IC50 (Interstitial collagenase) [nM],IC50 (Stromelysin-1) [nM],IC50 (Neutrophil collagenase) [nM],IC50 ([3]; Homo sapiens) [nM],IC50 ([4]; Homo sapiens) [nM],IC50 [5] [nM],IC50 ([6]; Homo sapiens) [nM],IC50 ([7]; Homo sapiens) [nM],Plasma level (Rattus norvegicus [9]) [ng/mL],IC50 [3] [nM],IC50 [4] [nM],IC50 [6] [nM],IC50 [7] [nM],IC50 [11] [nM],inhibition in vivo at 30 mg/kg (Mus musculus) [%],inhibition in vivo at 10 mg/kg (Rattus norvegicus [8]) [%],inhibition in vivo at 3 mg/kg (Rattus norvegicus [10]) [%]
O=C(NO)C(CCCc1ccccc1)CS(=O)(=O)c1ccc(C(O)c2ccccc2)cc1 (centres undefined),2500,1700,25000,2500,3000,,,,,,,,,,,,,,
O=C(NO)C(CCCc1ccccc1)CS(=O)(=O)c1ccc(Cc2ccccc2)cc1 (centres undefined),150,200,> 30000,> 2000,300,,,,,,,,,,,,,,
O=C(c1ccccc1)c1ccc(S(=O)(=O)CC(CCCc2ccccc2)C(=O)O)cc1 (centres undefined),400,800,20000,1200,300,,,,,,,,,,,,,,

# Now from value to compound, other results behind:
IC50 [1] [nM],IC50 [2] [nM],IC50 (Interstitial collagenase) [nM],IC50 (Stromelysin-1) [nM],IC50 (Neutrophil collagenase) [nM],IC50 ([3]; Homo sapiens) [nM],IC50 ([4]; Homo sapiens) [nM],IC50 [5] [nM],IC50 ([6]; Homo sapiens) [nM],IC50 ([7]; Homo sapiens) [nM],Plasma level (Rattus norvegicus [9]) [ng/mL],IC50 [3] [nM],IC50 [4] [nM],IC50 [6] [nM],IC50 [7] [nM],IC50 [11] [nM],Compound,inhibition in vivo at 30 mg/kg (Mus musculus) [%],inhibition in vivo at 10 mg/kg (Rattus norvegicus [8]) [%],inhibition in vivo at 3 mg/kg (Rattus norvegicus [10]) [%]
150,50,20000,350,80,,,,,,,,,,,,O=C(c1ccc(S(=O)(=O)CC(CCCc2ccccc2)C(=O)NO)cc1)c1cc[n+]([O-])cc1 (centres undefined),,,
,,,100,15,> 100000,> 100000,> 100000,> 100000,> 100000,,,,,,,O=C(c1ccccc1)c1ccc(S(=O)(=O)CC(CCCc2ccccc2)C(=O)NO)cc1 (centres undefined),40,40,
15,3,10000,100,3,37000,> 100000,> 100000,> 100000,> 100000,300,,,,,,Cl.O=C(c1ccncc1)c1ccc(S(=O)(=O)CC(CCCc2ccccc2)C(=O)NO)cc1 (centres undefined),80,,50
,,,,,,,,,,,10000,10000,1000,2000,5000,"CNC(=O)[C@@H](NC(=O)C(CC(C)C)C(O)C(=O)NO)C(C)(C)C (single isomer, unassigned)",40,50,
